These results are taken from patent US20080293712A1, “Benzo[C][2,7]Naphtyridine Derivatives, Methods of Making Thereof and Methods of Use Thereof” (WYETH, priority 2007, published 2008).

Broadly, the IC50 is the concentration needed to halve the response being measured.

What all share (type): biochemical
The target of one assay is T1, PDK-1 (Homo sapiens, UniProt O15530).
T1 sequence (O15530 1-556): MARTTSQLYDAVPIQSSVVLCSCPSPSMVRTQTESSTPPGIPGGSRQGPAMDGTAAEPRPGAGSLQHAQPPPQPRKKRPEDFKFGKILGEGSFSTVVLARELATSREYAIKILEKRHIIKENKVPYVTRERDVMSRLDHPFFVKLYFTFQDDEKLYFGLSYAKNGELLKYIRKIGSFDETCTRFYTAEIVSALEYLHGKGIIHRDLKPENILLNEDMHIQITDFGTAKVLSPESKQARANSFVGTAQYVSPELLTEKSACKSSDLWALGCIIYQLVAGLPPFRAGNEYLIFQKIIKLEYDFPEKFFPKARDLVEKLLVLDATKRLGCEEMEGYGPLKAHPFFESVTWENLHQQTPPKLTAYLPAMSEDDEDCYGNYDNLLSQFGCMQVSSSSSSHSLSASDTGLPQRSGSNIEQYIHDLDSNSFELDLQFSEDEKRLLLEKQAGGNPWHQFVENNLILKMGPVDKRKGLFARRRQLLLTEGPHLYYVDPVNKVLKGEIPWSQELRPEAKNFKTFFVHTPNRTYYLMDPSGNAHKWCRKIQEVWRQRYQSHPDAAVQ
The assay is described as follows: PDK-1 kinase inhibition ELISA assay (phosphorylation of His6-tagged SGK1 S422D by PDK-1). As to conditions: PDK-1 ELISA, Table 11; read-out: Average IC50.

The target of the next assay is PKA (Homo sapiens, UniProt P17612). The assay is described as follows: PKA kinase inhibition, Z'-LYTE FRET assay.
In the next assay the target is Akt1 (Homo sapiens, UniProt P31749). Description: Akt1 kinase inhibition, Z'-LYTE FRET assay. The note with it: 100 μM ATP. Summed up: (§1)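 Z'-LYTE FRET format: kinase phosphorylates fluorophore-labelled peptide with ATP, then protease cleaves only non-phosphorylated peptide. Phosphorylation calculated from donor (460 nm)/acceptor (535 nm) emission ratio after 400 nm excitation; IC50 values derived.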
Chain of Akt1 (P31749 whole entry, species assumed): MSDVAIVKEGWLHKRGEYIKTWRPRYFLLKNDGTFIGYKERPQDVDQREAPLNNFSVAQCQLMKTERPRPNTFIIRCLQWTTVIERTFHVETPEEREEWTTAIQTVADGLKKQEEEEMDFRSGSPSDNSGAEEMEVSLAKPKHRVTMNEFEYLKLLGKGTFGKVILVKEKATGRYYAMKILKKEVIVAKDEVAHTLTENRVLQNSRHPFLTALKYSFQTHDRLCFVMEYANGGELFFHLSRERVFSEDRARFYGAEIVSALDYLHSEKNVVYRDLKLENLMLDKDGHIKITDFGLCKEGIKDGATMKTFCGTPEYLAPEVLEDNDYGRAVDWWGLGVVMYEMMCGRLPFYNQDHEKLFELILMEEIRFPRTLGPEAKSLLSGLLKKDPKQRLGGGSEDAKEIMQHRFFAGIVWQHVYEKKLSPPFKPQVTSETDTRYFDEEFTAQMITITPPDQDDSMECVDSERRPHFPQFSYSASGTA

The next assay addresses S6K (Homo sapiens, UniProt P23443). The assay is described as follows: S6K kinase inhibition, Z'-LYTE FRET assay. The note with it: 100 μM ATP. Summed up: as §1
For assay [1], the target named is T2, human PKCθ full length enzyme (Homo sapiens, UniProt Q04759).
T2 construct: human PKCθ full length enzyme; purchased Panvera, Madison, Wis., now Invitrogen, Carlsbad, Calif; P2996
T2 sequence (Q04759 whole entry): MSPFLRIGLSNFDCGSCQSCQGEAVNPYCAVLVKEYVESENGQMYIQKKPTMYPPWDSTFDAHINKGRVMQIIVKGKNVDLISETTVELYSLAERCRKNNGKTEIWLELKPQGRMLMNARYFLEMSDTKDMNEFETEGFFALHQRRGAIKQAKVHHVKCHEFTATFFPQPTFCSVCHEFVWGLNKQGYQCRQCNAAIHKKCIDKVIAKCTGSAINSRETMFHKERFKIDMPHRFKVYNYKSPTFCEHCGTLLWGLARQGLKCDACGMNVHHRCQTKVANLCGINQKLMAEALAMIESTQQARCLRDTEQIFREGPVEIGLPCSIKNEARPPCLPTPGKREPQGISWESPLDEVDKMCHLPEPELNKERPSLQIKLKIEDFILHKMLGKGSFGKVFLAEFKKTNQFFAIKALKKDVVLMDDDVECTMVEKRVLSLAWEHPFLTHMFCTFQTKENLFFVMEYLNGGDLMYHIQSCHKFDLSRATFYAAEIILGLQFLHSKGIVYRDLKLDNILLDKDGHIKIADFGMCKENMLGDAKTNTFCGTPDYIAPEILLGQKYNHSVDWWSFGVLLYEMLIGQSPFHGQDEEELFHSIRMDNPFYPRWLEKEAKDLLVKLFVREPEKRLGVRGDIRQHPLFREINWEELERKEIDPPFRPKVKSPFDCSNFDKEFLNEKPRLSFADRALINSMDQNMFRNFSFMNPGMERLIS
Description: PKCθ kinase inhibition, IMAP fluorescence polarization assay. The note with it: 6 μM ATP. An excerpt: The ability of illustrative Benzo[c][2,7]naphthyridine Derivatives to inhibit PKCθ can be determined using an IMAP Assay (Molecular Devices Corporation, Sunnyvale, Calif.). The materials used include the following: human PKCθ full length enzyme (Panvera, Madison, Wis., now Invitrogen, Carlsbad, Calif., Cat. No. P2996); substrate peptide: 5FAM-[…]-OH (Molecular Devices, Cat. No. RP7032); ATP (Sigma-Aldrich, St. Louis, Mo., Sigma Cat. No. A2383); DTT (e.g., Pierce, now Fisher Scientific, Waltham, Mass., Pierce Cat. No. 20291); 5× kinase reaction buffer (Molecular Devices, Cat. No. R7209); 5× binding buffer A (Molecular Devices, Cat. No. R7282), 5× binding buffer B (Molecular Devices, Cat. No. R7209); IMAP Beads (Molecular Devices, Cat. No. R7284); and 384-well plates (Corning Costar, Acton, Mass., Cat. No. 3710). The reaction buffer is prepared by diluting the 5× stock reaction buffer and adding DTT to obtain a concentration of 3.0 mM. The binding buffer is prepared by diluting the 5× binding buffer A. A master mix solution is prepared using a 90% dilution of the reaction buffer containing 2×ATP (12 μM) and 2× peptide (200 nM). […] The final concentration of compound is 2× and 10% DMSO. DMSO is added to the rest of the master mix to increase the concentration to 10%. 10 μl of the master mix containing 10% DMSO is added to the rest of the wells on the plate except the 2nd column. 20 μl is transferred from the first column to the 2nd column. The compounds are serially diluted in 2:1 ratio starting from the 2nd column. A 2× (2 nM) PKCθ solution is made in the reaction buffer. 10 μl of the PKCθ solution is added to every well to achieve these final concentrations: PKCθ—1 nM; ATP—6 μM; peptide—100 nM; DMSO—5%. Samples are incubated for 25 minutes at room temperature. The binding reagent is prepared by diluting the beads in 1× binding buffer to 800:1. 50 μl of the binding reagent is added to every well and incubated for 20 minutes. Fluorescence polarization is measured using EnVision™ 2100 multilabel reader (PerkinElmer Life Sciences, Wellesley, Mass.). Wells with no ATPs and wells with no enzymes are used as controls.
For orientation: Fluorescence polarisation rises when a labelled molecule tumbles more slowly, as on binding a larger partner.

Each structure is given as a SMILES string. Some results are limits rather than exact numbers.

Chain of S6K (P23443 whole entry): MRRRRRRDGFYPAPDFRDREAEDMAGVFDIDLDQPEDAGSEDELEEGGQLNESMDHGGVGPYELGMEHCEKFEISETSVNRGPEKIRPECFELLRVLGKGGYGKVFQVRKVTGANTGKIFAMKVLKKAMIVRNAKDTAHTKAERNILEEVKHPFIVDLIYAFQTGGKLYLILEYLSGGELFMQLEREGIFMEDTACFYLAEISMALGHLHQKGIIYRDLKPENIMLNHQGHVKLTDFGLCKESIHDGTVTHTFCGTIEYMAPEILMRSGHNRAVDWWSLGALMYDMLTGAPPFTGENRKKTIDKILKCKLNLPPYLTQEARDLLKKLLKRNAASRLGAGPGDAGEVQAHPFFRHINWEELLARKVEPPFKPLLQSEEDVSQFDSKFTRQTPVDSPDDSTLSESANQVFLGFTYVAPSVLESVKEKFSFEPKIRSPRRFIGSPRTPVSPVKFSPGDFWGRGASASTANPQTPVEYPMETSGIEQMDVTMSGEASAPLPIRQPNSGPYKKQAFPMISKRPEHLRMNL
Description for PDK-1: In an in vitro assay, His6-tagged SGK1 with S422D mutation (formerly Upstate Biotech, now Millipore) on Thr256 is allowed to be phosphorylated by PDK-1 in the presence of a Benzo[c][2,7]naphthyridine Derivative. After 20 minutes, the reaction is quenched via the addition of urea. The His6-tagged SGK1 is then bound to 96 well Ni-NTA HisSorb plates (Quiagen, Inc., Valencia, Calif.) and phosphorylated SGK1 is quantitatively detected using rabbit derived anti-phospho SGK antibody (Cell Signaling Technology, Danvers, Mass.) as the primary antibody and horseradish peroxidase (HRP)—coupled anti-rabbit antibody (formerly Zymed, now Invitrogen, Carlsbad, Calif.) as the secondary antibody. HRP is then detected using a chemiluminescent substrate (Pierce Chemical Co., Woburn, Mass.).
Description for PKA: Z′-Lyte™ assay is an in vitro FRET-based assay that utilizes differential sensitivity of phosphorylated and non-phosphorylated peptides to proteolytic cleavage. The peptide substrate (also available from Invitrogen for each of PKA, Akt1 and S6K) is labeled with two different fluorophores, a fluorescence donor at one end of the peptide and a fluorescence acceptor at the other end of the peptide. In the primary kinase reaction, the kinase phosphorylates the peptide substrate in the presence of ATP. In the secondary reaction, a site-specific protease recognizes and cleaves non-phosphorylated peptides, but not phosphorylated peptides. Cleavage disrupts FRET between the donor and acceptor fluorophores on the peptide, whereas uncleaved phosphorylated peptides maintain FRET. Based on a formula that uses the ratio of donor emission (at 460 nm) to acceptor emission (at 535 nM) after excitation of the donor fluorophore at 400 nm, the extent of phosphorylation of the peptide substrates is calculated.

With `COCCOc1cc2ncc3c(N)nc(-c4cncc(OC[C@@H](N)Cc5ccccc5)c4)cc3c2cc1OC` [Ia-11, 2-(5-{[(2S)-2-amino-3-phenylpropyl]oxy}pyridin-3-yl)-9-methoxy-8-(2-methoxyethoxy)benzo[c]-2,7-naphthyridin-4-amine], the IC50 stood at 0.012 µM on PDK-1; 0.038 µM on PKA (20 μM ATP); 0.39 µM against PKA (100 μM ATP); 0.001 µM at Akt1; 0.034 µM at S6K; 0.017 µM in assay [1].

Consider `COc1cc2c(cc1OCCN1CCCC1)ncc1c(N)nc(-n3ccnc3)cc12` [Ia-12, 2-(1H-imidazol-1-yl)-9-methoxy-8-(2-pyrrolidin-1-ylethoxy)benzo[c]-2,7-naphthyridin-4-amine], for which the IC50 is 0.508 µM on PDK-1, greater than 10 µM on PKA (20 μM ATP), 0.225 µM against Akt1 and 0.255 µM in assay [1].

Take `COc1cc2c(cc1OCCN1CCOCC1)ncc1c(N)nc(-n3ccnc3)cc12` [Ia-13, 2-(1H-imidazol-1-yl)-9-methoxy-8-(2-morpholinoethoxy)benzo[c][2,7]naphthyridin-4-amine]: the half-inhibitory concentration (IC50) is 0.079 µM on PDK-1; greater than 10 µM against PKA (20 μM ATP); greater than 2 µM on PKA (100 μM ATP); 0.07 µM at Akt1; 0.656 µM against S6K; 0.121 µM in assay [1].

For the compound `CCOc1cc2ncc3c(N)nc(-n4ccnc4)cc3c2cc1N` [Ia-28, 8-Ethoxy-2-(1H-imidazol-1-yl)benzo[c]-2,7-naphthyridine-4,9-diamine], the half-maximal inhibitory concentration (IC50) on PDK-1 is 0.046 µM; against PKA (100 μM ATP) it was greater than 2 µM; against Akt1, 0.36 µM; on S6K it was 1.09 µM; in assay [1] it was 0.135 µM.

Consider `CCSc1cc2ncc3c(N)nc(-c4cncc(OC[C@@H](N)Cc5ccccc5)c4)cc3c2cc1OC` [Ia-40, 2-(5-{[(2S)-2-amino-3-phenylpropyl]oxy}pyridin-3-yl)-8-(ethylthio)-9-methoxybenzo[c]-2,7-naphthyridin-4-amine], for which the IC50 is 0.0445 µM at PDK-1, greater than 20 µM on PKA (20 μM ATP), 1 µM at Akt1 and 0.525 µM in assay [1].

On to `COCCOc1cc2ncc3c(N)nc(-n4ccnc4)cc3c2cc1OC` [Ia-48, 2-(1H-imidazol-1-yl)-9-methoxy-8-(2-methoxyethoxy)benzo[c]-2,7-naphthyridin-4-amine], for which the half-inhibitory concentration (IC50) is greater than 20 µM against PKA (20 μM ATP); greater than 2 µM against PKA (100 μM ATP); 0.2 µM against Akt1; 1.39 µM at S6K; 0.116 µM in assay [1].

Consider `COc1cc2ncc3c(N)nc(-c4cncc(OC[C@H](N)Cc5c[nH]c6ccccc56)c4)cc3c2cc1OC` [Ib-55, 2-(5-{[(2R)-2-amino-3-(1H-indol-3-yl)propyl]oxy}pyridin-3-yl)-8,9-dimethoxybenzo[c]-2,7-naphthyridin-4-amine], for which the IC50 was 0.015 µM on PDK-1; less than 0.08 µM on PKA (20 μM ATP); 1.32 µM at PKA (100 μM ATP); 0.018 µM against Akt1; 0.254 µM against S6K; 0.003 µM in assay [1].

Consider `COc1cc2ncc3c(N)nc(-c4cncc(OC[C@H](N)Cc5ccccc5)c4)cc3c2cc1OC` [Ib-56, 2-(5-{[(2R)-2-amino-3-phenylpropyl]oxy}pyridin-3-yl)-8,9-dimethoxybenzo[c]-2,7-naphthyridin-4-amine], for which the IC50 is less than 0.16 µM against PKA (20 μM ATP); 0.259 µM at PKA (100 μM ATP); 0.003 µM against Akt1; 0.088 µM on S6K; 0.004 µM in assay [1].

Turning to `COc1cc2ncc3c(N)nc(-c4cncc(O)c4)cc3c2cc1OC` [Ib-57, 5-(4-Amino-8,9-dimethoxybenzo[c]-2,7-naphthyridin-2-yl)pyridin-3-ol], the IC50 at PDK-1 was 0.057 µM; on PKA (20 μM ATP), greater than 20 µM; against PKA (100 μM ATP) it was greater than 2 µM; against Akt1, 0.3 µM; against S6K, greater than 2 µM; in assay [1] it was 0.332 µM.

Turning to `COc1cc2ncc3c(N)nc(-c4cncc(O[C@@H]5CCNC5)c4)cc3c2cc1OC` [Ib-58, 8,9-dimethoxy-2-{5-[(3R)-pyrrolidin-3-yloxy]pyridin-3-yl}benzo[c]-2,7-naphthyridin-4-amine], the IC50 at PDK-1 is 0.066 µM; at PKA (20 μM ATP), 0.14 µM; against PKA (100 μM ATP), 1.53 µM; against Akt1 it was 0.06 µM; at S6K it was 0.355 µM; in assay [1] it was 0.249 µM.

For `COc1cc2ncc3c(N)nc(-c4cncc(O[C@H]5CCNC5)c4)cc3c2cc1OC` [Ib-59, 8,9-dimethoxy-2-{5-[(3S)-pyrrolidin-3-yloxy]pyridin-3-yl}benzo[c]-2,7-naphthyridin-4-amine], the concentration for half-maximal inhibition (IC50) is 0.064 µM at PDK-1; 2 µM against PKA (20 μM ATP); greater than 2 µM against PKA (100 μM ATP); 0.29 µM on Akt1; 1.24 µM at S6K; 0.592 µM in assay [1].

Regarding `COc1cc2ncc3c(N)nc(-c4cncc(OC[C@@H](N)Cc5ccccc5)c4)cc3c2cc1OC` [Ib-62, 2-(5-{[(2S)-2-amino-3-phenylpropyl]oxy}pyridin-3-yl)-8,9-dimethoxybenzo[c]-2,7-naphthyridin-4-amine], the IC50 was 0.01 µM on PDK-1; 0.023 µM on PKA (20 μM ATP); 0.146 to 0.497 µM against PKA (100 μM ATP); less than 0.16 µM on Akt1; 0.098 to 0.14 µM against S6K; 0.029 µM in assay [1].
